Values of other authors as cited in US20140243296A1, “Organic Compounds” (Jagotec AG, priority 2011, published 2014).

Columns and labels:
[1] = qualitative
CYP 3A4 isoform = CYP 3A4 isoform (Homo sapiens, UniProt P08684); details: qualitative, prior-art knowledge
P-glycoprotein (Pgp) = P-glycoprotein (Pgp) (Homo sapiens, UniProt P08183); details: qualitative, prior-art knowledge
P-glycoprotein (Pgp), sequence (P08183 whole entry): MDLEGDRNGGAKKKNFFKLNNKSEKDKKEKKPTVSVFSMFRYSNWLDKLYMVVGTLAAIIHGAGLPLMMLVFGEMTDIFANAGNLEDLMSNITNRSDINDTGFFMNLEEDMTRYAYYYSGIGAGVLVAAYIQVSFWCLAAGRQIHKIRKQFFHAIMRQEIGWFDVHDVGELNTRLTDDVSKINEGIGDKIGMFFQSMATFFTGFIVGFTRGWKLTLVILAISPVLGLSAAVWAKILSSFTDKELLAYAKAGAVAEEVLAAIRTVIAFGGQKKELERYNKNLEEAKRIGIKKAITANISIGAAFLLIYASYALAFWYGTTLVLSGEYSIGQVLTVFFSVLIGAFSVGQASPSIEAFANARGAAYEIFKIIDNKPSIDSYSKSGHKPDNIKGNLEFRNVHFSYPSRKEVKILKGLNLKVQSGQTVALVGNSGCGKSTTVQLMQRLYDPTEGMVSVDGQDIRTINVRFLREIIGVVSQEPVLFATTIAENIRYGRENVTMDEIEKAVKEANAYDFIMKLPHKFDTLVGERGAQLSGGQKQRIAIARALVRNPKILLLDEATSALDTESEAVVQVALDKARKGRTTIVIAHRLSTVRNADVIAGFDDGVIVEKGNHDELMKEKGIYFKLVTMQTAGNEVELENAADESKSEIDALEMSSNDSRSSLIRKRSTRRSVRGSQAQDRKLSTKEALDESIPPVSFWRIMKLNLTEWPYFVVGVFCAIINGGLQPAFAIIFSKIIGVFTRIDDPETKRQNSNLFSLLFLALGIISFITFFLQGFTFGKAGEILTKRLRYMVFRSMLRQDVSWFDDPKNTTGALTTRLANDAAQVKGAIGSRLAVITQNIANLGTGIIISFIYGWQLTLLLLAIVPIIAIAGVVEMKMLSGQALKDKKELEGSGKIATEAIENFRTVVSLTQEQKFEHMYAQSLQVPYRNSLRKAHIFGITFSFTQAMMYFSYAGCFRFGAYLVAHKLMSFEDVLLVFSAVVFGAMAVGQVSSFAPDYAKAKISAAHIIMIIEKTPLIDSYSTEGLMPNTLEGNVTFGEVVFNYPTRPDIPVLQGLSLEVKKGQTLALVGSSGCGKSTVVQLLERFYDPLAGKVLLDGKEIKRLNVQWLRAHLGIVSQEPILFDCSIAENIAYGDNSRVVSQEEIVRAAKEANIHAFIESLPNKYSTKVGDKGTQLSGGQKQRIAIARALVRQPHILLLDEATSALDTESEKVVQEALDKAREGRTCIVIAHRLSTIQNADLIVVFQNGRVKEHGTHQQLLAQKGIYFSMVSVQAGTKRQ

CYP 3A4 isoform, sequence (P08684 whole entry, canonical isoform): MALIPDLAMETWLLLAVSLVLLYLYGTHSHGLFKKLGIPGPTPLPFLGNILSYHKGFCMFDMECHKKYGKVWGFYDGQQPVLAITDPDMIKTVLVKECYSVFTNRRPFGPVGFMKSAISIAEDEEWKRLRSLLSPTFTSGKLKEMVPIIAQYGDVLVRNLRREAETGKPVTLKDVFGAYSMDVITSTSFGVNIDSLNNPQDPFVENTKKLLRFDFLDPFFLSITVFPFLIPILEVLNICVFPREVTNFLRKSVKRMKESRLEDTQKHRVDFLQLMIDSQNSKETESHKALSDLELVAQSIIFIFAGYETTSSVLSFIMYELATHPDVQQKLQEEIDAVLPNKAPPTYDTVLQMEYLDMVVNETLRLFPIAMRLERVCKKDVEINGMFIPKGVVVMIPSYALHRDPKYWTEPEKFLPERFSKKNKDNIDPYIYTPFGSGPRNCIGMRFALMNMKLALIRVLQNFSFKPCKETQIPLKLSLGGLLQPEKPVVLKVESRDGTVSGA

Row | inhibition of / affinity towards CYP, particularly CYP 3A4 isoform (CYP 3A4 isoform) | Compound | further results
1 | – | CC(C)CN(C[C@@H](O)[C@H](Cc1ccccc1)NC(=O)O[C@H]1CO[C@H]2OCC[C@H]21)S(=O)(=O)c1ccc(N)cc1 [Darunavir, darunavir] | solubility [1]: poorly soluble
2 | weak inhibitors | CC(C)CN(C[C@@H](O)[C@H](Cc1ccccc1)NC(=O)O[C@H]1CCOC1)S(=O)(=O)c1ccc(N)cc1 [amprenavir] | –
3 | – | CC(C)(C)NC(=O)[C@@H]1CN(Cc2cccnc2)CCN1C[C@@H](O)C[C@@H](Cc1ccccc1)C(=O)N[C@H]1c2ccccc2C[C@H]1O [indinavir] | inhibitory effect on / affinity for Pgp (P-glycoprotein (Pgp)): substantially no inhibitory effect
4 | modest inhibition | Cc1c(O)cccc1C(=O)N[C@@H](CSc1ccccc1)[C@H](O)CN1C[C@H]2CCCC[C@H]2C[C@H]1C(=O)NC(C)(C)C [nelfinavir] | –

Row | Compound | inhibition of / affinity towards CYP, particularly CYP 3A4 isoform (CYP 3A4 isoform) | further results
5 | CC(C)(C)NC(=O)[C@@H]1C[C@@H]2CCCC[C@@H]2CN1C[C@@H](O)[C@H](Cc1ccccc1)NC(=O)[C@H](CC(N)=O)NC(=O)c1ccc2ccccc2n1 [saquinavir] | weak inhibitors | –
